# Key:
# Type in all cases: cell-based
# [1] = system: NF-κB; test: NF-κB activity in NIH3T3-KBF-Luc cells stimulated with TNFα (luciferase); conditions: for % Activation: TNFα alone = 100
# Experimental: NIH3T3-KBF-Luc cells were stably transfected with the KBF-Luc plasmid (Sancho (2003) Mol Pharmacol 63:429-438), which contains three copies of NF-κB binding site (from major histocompatibility complex promoter), fused to a minimal simian virus 40 promoter driving the luciferase gene. Cells (1×10^4 for NIH3T3-KBF-Luc) were seeded the day before the assay on 96-well plate. Then the cells were treated with the test substances for 15 min and then stimulated with 30 ng/ml of TNFα. After 6 h, the cells were washed twice with PBS and lysed in 50 μl lysis buffer containing 25 mM Tris-phosphate (pH 7.8), 8 mM MgCl2, 1 mM DTT, 1% Triton X-100, and 7% glycerol during 15 min at RT in a horizontal shaker. Luciferase activity was measured using a GloMax 96 microplate luminometer (Promega) following the instructions of the luciferase assay kit (Promega, Madison, Wis., USA). […] The experiments for each concentration of the test items were done in triplicate wells.
# [2] = system: STAT3; test: STAT3 activity in HeLa-STAT3-luc cells stimulated with IFN-γ (luciferase); conditions: for Mean: mean of triplicate wells
# Experimental: HeLa-STAT3-luc cells were stably transfected with the plasmid 4xM67 pTATA TK-Luc. Cells (20×10^3 cells/ml) were seeded 96-well plate the day before the assay. Then the cells were treated with the test substances for 15 min and then stimulated with IFN-γ 25 IU/ml. After 6 h, the cells were washed twice with PBS and lysed in 50 μl lysis buffer containing 25 mM Tris-phosphate (pH 7.8), 8 mM MgCl2, 1 mM DTT, 1% Triton X-100, and 7% glycerol during 15 min at RT in a horizontal shaker. Luciferase activity was measured using GloMax 96 microplate luminometer (Promega) following the instructions of the luciferase assay kit (Promega, Madison, Wis., USA). […] The experiments for each concentration of the test items were done in triplicate wells.
# [3] = system: HaCaT cells; test: Glucose uptake (2-NBDG) in HaCaT keratinocytes; design: key to Measure 1 / Measure 2 / Measure 3 / Mean: total green object integrated intensity, GCU×μm2×Well; conditions: +2NBDG 50 μM, 24 h; for Measure 1 / Measure 2 / Measure 3: HaCaT cells, fluorescence; for RFU specific: mean minus control; for Mean: mean of triplicate measurements; for % Glucose uptake: Rosiglitazone 80 μM = 100%
# Experimental: HaCaT cells (5×10^4) were seeded in 96-well black plates and incubated for 24 h. Then, medium was removed and the cells cultivated in OptiMEM, labeled with 50 μM 2-NBDG (2-[N-(7-nitrobenz-2-oxa-1,3-diazol-4-yl) amino]-2-deoxy-D-glucose and treated with the test substances or the positive control, Rosiglitazone, for 24 h. Medium was removed and the wells were carefully washed with PBS and incubated in PBS (100l/well). Finally the fluorescence was measured using the Incucyte FLR software, the data were analyzed by the total green object integrated intensity (GCU×μm2×Well) of the imaging system IncuCyte HD (Essen BioScience). The fluorescence of Rosiglitazone is taken as 100% of glucose uptake, and the glucose uptake was calculated as (% Glucose uptake)=100(T−B)/(R−B), where T (treated) is the fluorescence of test substance-treated cells, B (Basal) is the fluorescence of 2-NBDG cells and […] is the fluorescence of cells treated with Rosiglitazone.
# [4] = 50 μM test substance, +IFNγ 25 U/ml, IFNγ alone = 100% activation
compound,measurement,setting,value
"COc1ccc(-c2coc3cc(O[C@@H]4OC(C)[C@H](O)C(O)C4O)cc(O[C@@H]4OC(C)[C@H](O)C(O)C4O)c3c2=O)cc1 (stereo partly drawn) [BR1, Biochanin A-5,7-di-O-α-L-rhamnoside]",RLU 1,[1]; 10 μM + 30 ng/ml TNFα,259120 RLU
same,RLU 2,[1]; 10 μM + 30 ng/ml TNFα,247590 RLU
same,RLU 3,[1]; 10 μM + 30 ng/ml TNFα,229500 RLU
same,RLU MEAN,[1]; 10 μM + 30 ng/ml TNFα,245403 RLU
same,RLU specific,[1]; 10 μM + 30 ng/ml TNFα,222040 RLU
same,% Activation,[1]; 10 μM + 30 ng/ml TNFα,170.3%
same,RLU 1,[1]; 25 μM + 30 ng/ml TNFα,211660 RLU
same,RLU 2,[1]; 25 μM + 30 ng/ml TNFα,208010 RLU
same,RLU 3,[1]; 25 μM + 30 ng/ml TNFα,203720 RLU
same,RLU MEAN,[1]; 25 μM + 30 ng/ml TNFα,207797 RLU
same,RLU specific,[1]; 25 μM + 30 ng/ml TNFα,184433 RLU
same,% Activation,[1]; 25 μM + 30 ng/ml TNFα,141.4%
same,RLU 1,[2]; 25 μM + IFNγ 25 U/ml,8162 RLU
same,RLU 2,[2]; 25 μM + IFNγ 25 U/ml,12819 RLU
same,RLU 3,[2]; 25 μM + IFNγ 25 U/ml,11157 RLU
same,RLU MEAN,[2]; 25 μM + IFNγ 25 U/ml,10713 RLU
same,RLU specific,[2]; 25 μM + IFNγ 25 U/ml,8878 RLU
same,% Activation,"[2]; 25 μM + IFNγ 25 U/ml, IFNγ alone = 100",110.41%
same,RLU 1,[2]; 50 μM + IFNγ 25 U/ml,12336 RLU
same,RLU 2,[2]; 50 μM + IFNγ 25 U/ml,11620 RLU
same,RLU 3,[2]; 50 μM + IFNγ 25 U/ml,12104 RLU
same,RLU MEAN,[2]; 50 μM + IFNγ 25 U/ml,12020 RLU
same,RLU specific,[2]; 50 μM + IFNγ 25 U/ml,10185 RLU
same,% Activation,"[2]; 50 μM + IFNγ 25 U/ml, IFNγ alone = 100",126.67%
"COc1ccc(-c2cc(=O)c3c(O)cc(O)cc3o2)cc1O [Diosmetin, 5,7-Trihydroxy-4′-methoxyflavone, reference compound]",% Activation,[2]; [4],50.00%
Diosmetin-5-O-α-L-rhamnoside [DR2],Measure 1,[3]; 25 μM test substance,632398
same,Measure 2,[3]; 25 μM test substance,940240
same,Measure 3,[3]; 25 μM test substance,197738
same,RFU specific,[3]; 25 μM test substance,583811 RFU
same,Mean,[3]; 25 μM test substance,590125
same,% Glucose uptake,[3]; 25 μM test substance,67.2%
same,Measure 1,[3]; 50 μM test substance,2958363
same,Measure 2,[3]; 50 μM test substance,1297231
same,Measure 3,[3]; 50 μM test substance,2493030
same,RFU specific,[3]; 50 μM test substance,2243227 RFU
same,Mean,[3]; 50 μM test substance,2249541
same,% Glucose uptake,[3]; 50 μM test substance,258.2%
same,RLU 1,[1]; 10 μM + 30 ng/ml TNFα,211150 RLU
same,RLU 2,[1]; 10 μM + 30 ng/ml TNFα,215320 RLU
same,RLU 3,[1]; 10 μM + 30 ng/ml TNFα,213260 RLU
same,RLU MEAN,[1]; 10 μM + 30 ng/ml TNFα,213243 RLU
same,RLU specific,[1]; 10 μM + 30 ng/ml TNFα,189880 RLU
same,% Activation,[1]; 10 μM + 30 ng/ml TNFα,145.6%
same,RLU 1,[1]; 25 μM + 30 ng/ml TNFα,245900 RLU
same,RLU 2,[1]; 25 μM + 30 ng/ml TNFα,241550 RLU
same,RLU 3,[1]; 25 μM + 30 ng/ml TNFα,234880 RLU
same,RLU MEAN,[1]; 25 μM + 30 ng/ml TNFα,240777 RLU
same,RLU specific,[1]; 25 μM + 30 ng/ml TNFα,217413 RLU
same,% Activation,[1]; 25 μM + 30 ng/ml TNFα,166.7%
same,RLU 1,"[2]; 25 μM test substance, +IFNγ 25 U/ml, HeLa-STAT3-luc cells, replicate well 1",12137 RLU
same,RLU 2,"[2]; 25 μM test substance, +IFNγ 25 U/ml, HeLa-STAT3-luc cells, replicate well 2",10269 RLU
same,RLU 3,"[2]; 25 μM test substance, +IFNγ 25 U/ml, HeLa-STAT3-luc cells, replicate well 3",9275 RLU
same,RLU specific,"[2]; 25 μM test substance, +IFNγ 25 U/ml, mean minus control",8553 RLU
same,Mean,"[2]; 25 μM test substance, +IFNγ 25 U/ml",10560 RLU
same,% Activation,"[2]; 25 μM test substance, +IFNγ 25 U/ml, IFNγ alone = 100% activation",68.33%
same,RLU 1,"[2]; 50 μM test substance, +IFNγ 25 U/ml, HeLa-STAT3-luc cells, replicate well 1",13005 RLU
same,RLU 2,"[2]; 50 μM test substance, +IFNγ 25 U/ml, HeLa-STAT3-luc cells, replicate well 2",10547 RLU
same,RLU 3,"[2]; 50 μM test substance, +IFNγ 25 U/ml, HeLa-STAT3-luc cells, replicate well 3",10143 RLU
same,RLU specific,"[2]; 50 μM test substance, +IFNγ 25 U/ml, mean minus control",9224 RLU
same,Mean,"[2]; 50 μM test substance, +IFNγ 25 U/ml",11232 RLU
same,% Activation,[2]; [4],73.69%
